Results taken from patent US9040545B2, “Heterocyclyl pyrazolopyrimidine analogues as selective JAK inhibitors” (Cellzome Limited, priority 2010, dated 2015).

Molecular target: T1, JAK3 (Homo sapiens, UniProt P52333)
T1 construct: endogenous in cells; host or cells: mixed Molt4/Ramos lysate (1:2)
T1 sequence (P52333 1-1124): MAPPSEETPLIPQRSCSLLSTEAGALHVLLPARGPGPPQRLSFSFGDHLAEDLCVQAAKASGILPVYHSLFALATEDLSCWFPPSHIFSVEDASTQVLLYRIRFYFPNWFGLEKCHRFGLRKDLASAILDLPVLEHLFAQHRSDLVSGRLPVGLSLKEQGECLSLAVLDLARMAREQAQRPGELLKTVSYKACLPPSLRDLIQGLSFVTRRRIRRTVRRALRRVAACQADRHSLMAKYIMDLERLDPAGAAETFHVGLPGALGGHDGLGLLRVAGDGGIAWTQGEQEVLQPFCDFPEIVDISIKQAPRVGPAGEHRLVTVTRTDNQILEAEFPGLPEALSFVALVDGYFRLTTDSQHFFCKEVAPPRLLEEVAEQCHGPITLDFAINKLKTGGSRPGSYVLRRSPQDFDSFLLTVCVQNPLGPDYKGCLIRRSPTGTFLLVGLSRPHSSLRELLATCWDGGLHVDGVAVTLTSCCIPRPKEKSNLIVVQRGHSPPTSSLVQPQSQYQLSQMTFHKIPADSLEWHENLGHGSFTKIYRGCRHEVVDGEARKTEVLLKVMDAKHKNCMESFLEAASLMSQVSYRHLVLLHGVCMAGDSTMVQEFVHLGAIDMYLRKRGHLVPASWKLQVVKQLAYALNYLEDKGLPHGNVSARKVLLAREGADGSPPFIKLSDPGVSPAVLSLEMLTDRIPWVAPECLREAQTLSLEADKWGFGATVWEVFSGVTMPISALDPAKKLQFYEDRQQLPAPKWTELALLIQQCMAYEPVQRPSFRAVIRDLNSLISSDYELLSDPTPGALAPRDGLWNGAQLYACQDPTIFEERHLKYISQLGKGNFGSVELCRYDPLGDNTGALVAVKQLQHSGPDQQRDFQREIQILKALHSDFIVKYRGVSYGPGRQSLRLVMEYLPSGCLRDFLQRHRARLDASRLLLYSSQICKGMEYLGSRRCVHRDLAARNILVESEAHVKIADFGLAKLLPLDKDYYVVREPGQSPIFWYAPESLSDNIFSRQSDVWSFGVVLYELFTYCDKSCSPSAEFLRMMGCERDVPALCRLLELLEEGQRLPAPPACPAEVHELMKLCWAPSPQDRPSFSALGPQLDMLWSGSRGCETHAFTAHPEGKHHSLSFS
Experiment: Kinobeads assay, JAK3
Format: binding
Conditions: mixed Molt4/Ramos lysate, read-out: Inhibition values (IC50) JAK3
Method: The compounds of the present invention as described in the previous examples were tested in a Kinobeads™ assay as described for ZAP-70 (WO-A 2007/137867). Briefly, test compounds (at various concentrations) and the affinity matrix with the immobilized aminopyrido-pyrimidine ligand 24 were added to cell lysate aliquots and allowed to bind to the proteins in the lysate sample. After the incubation time the beads with captured proteins were separated from the lysate. Bound proteins were then eluted and the presence of JAK2 and JAK3 was detected and quantified using specific antibodies in a dot blot procedure and the Odyssey infrared detection system. Dose response curves for individual kinases were generated and IC50 values calculated. Kinobeads™ assays for ZAP-70 (WO-A 2007/137867) and for kinase selectivity profiling (WO-A 2006/134056) have been previously described.
The affinity matrix was washed two times with 15 mL of 1×DP buffer containing 0.2% NP40 (IGEPAL® CA-630, Sigma, #I3021) and then resuspended in 1×DP buffer containing 0.2% NP40 (3% beads slurry).
5×DP buffer 250 mM Tris-HCl pH 7.4, 25% Glycerol, 7.5 mM MgCl2, 750 mM NaCl, 5 mM Na3VO4; filter the 5×DP buffer through a 0.22 μm filter and store in aliquots at −80° C. The 5×DP buffer is diluted with H2O to 1×DP buffer containing 1 mM DTT and 25 mM NaF.
Stock solutions of test compounds were prepared in DMSO. In a 96 well plate 30 μL solution of diluted test compounds at 5 mM in DMSO were prepared. Starting with this solution a 1:3 dilution series (9 steps) was prepared. For control experiments (no test compound) a buffer containing 2% DMSO was used.
Molt4 cells (ATCC catalogue number CRL-1582) and Ramos cells (ATCC catalogue number CRL-1596) were grown in 1 L Spinner flasks (Integra Biosciences, #182101) in suspension in RPMI 1640 medium (Invitrogen, #21875-034) supplemented with 10% Fetal Bovine Serum (Invitrogen) at a density between 0.15×106 and 1.2×10^6 cells/mL. Cells were harvested by centrifugation, washed once with 1×PBS buffer (Invitrogen, #14190-094) and cell pellets were frozen in liquid nitrogen and subsequently stored at −80° C. Cells were homogenized in a Potter S homogenizer in lysis buffer: 50 mM Tris-HCl, 0.8% NP40, 5% glycerol, 150 mM NaCl, 1.5 mM MgCl2, 25 mM NaF, 1 mM sodium vanadate, 1 mM DTT, pH 7.5. One complete EDTA-free tablet (protease inhibitor cocktail, Roche Diagnostics, 1873580) per 25 mL buffer was added. The material was dounced 10 times using a mechanized POTTER S, transferred to 50 mL falcon tubes, incubated for 30 minutes on ice and spun down for 10 minutes at 20,000 g at 4° C. (10,000 rpm in Sorvall SLA600, precooled). The supernatant was transferred to an ultracentrifuge (UZ)-polycarbonate tube (Beckmann, 355654) and spun for 1 hour at 100,000 g at 4° C. (33.500 rpm in Ti50.2, precooled). The supernatant was transferred again to a fresh 50 mL falcon tube, the protein concentration was determined by a Bradford assay (BioRad) and samples containing 50 mg of protein per aliquot were prepared. The samples were immediately used for experiments or frozen in liquid nitrogen and stored frozen at −80° C.
Cell lysate (approximately 50 mg protein per plate) was thawed in a water bath at room temperature and then stored on ice. To the thawed cell lysate 1×DP 0.8% NP40 buffer containing protease inhibitors (1 tablet for 25 mL buffer; EDTA-free protease inhibitor cocktail; Roche Diagnostics 1873580) was added in order to reach a final protein concentration of 10 mg/mL total protein. The diluted cell lysate was stored on ice. Mixed Molt4/Ramos lysate was prepared by combining one volume of Molt4 lysate and two volumes of Ramos lysate (ratio 1:2).
To a 96 well filter plate (Multiscreen HTS, BV Filter Plates, Millipore #MSBVN1250) were added per well: 100 μL affinity matrix (3% beads slurry), 3 μL of compound solution, and 50 μL of diluted lysate. […]

## C[C@@H]1COCCN1c1cccc(Cn2ncc3cnc(Nc4cnn(C)c4)nc32)n1 [Example 1, (R)—N-(1-Methyl-1H-pyrazol-4-yl)-1-((6-(3-methylmorpholino)pyridin-2-yl)methyl)-1H-pyrazolo[3,4-d]pyrimidin-6-amine]
  IC50: < 100 nM

## Cn1cc(Nc2ncc3cnn(Cc4cccc(N5CCOCC5)c4)c3n2)cn1 [Example 2, N-(1-Methyl-1H-pyrazol-4-yl)-1-(3-morpholinobenzyl)-1H-pyrazolo[3,4-d]pyrimidin-6-amine]
  IC50: < 100 nM

## Cn1cc(Nc2ncc3cnn(Cc4cccc(N5CCOCC5)n4)c3n2)cn1 [Example 3, N-(1-Methyl-1H-pyrazol-4-yl)-1-((6-morpholinopyridin-2-yl)methyl)-1H-pyrazolo[3,4-d]pyrimidin-6-amine]
  IC50: < 100 nM

## CN(C)CCCn1cc(Nc2ncc3cnn(Cc4cccc(N5CCOCC5)c4)c3n2)cn1 [Example 4, N-(1-(3-(Dimethylamino)propyl)-1H-pyrazol-4-yl)-1-(3-morpholinobenzyl)-1H-pyrazolo[3,4-d]pyrimidin-6-amine]
  IC50: < 100 nM

## OCCn1cc(Nc2ncc3cnn(Cc4cccc(N5CCOCC5)c4)c3n2)cn1 [Example 5, 2-(4-((1-(3-Morpholinobenzyl)-1H-pyrazolo[3,4-d]pyrimidin-6-yl)amino)-1H-pyrazol-1-yl)ethanol]
  IC50: < 100 nM

## Cn1cc(Nc2ncc3cnn(Cc4cccc(C(=O)N5CCOCC5)c4)c3n2)cn1 [Example 6, (3-((6-((1-Methyl-1H-pyrazol-4-yl)amino)-1H-pyrazolo[3,4-d]pyrimidin-1-yl)methyl)phenyl)(morpholino)methanone]
  IC50: < 100 nM

## Cn1cc(Nc2ncc3cnn(Cc4cccc(CN5CCOCC5)c4)c3n2)cn1 [Example 7, N-(1-Methyl-1H-pyrazol-4-yl)-1-(3-(morpholinomethyl)benzyl)-1H-pyrazolo[3,4-d]pyrimidin-6-amine]
  IC50: < 100 nM

## Cn1cc(Nc2ncc3cnn(Cc4cccc(N5CCCCC5)c4)c3n2)cn1 [Example 8, N-(1-Methyl-1H-pyrazol-4-yl)-1-(3-(piperidin-1-yl)benzyl)-1H-pyrazolo[3,4-d]pyrimidin-6-amine]
  IC50: 100 to 1000 nM

## Cn1cc(Nc2ncc3cnn(Cc4cccc(C5CCOCC5)c4)c3n2)cn1 [Example 9, N-(1-Methyl-1H-pyrazol-4-yl)-1-(3-(tetrahydro-2H-pyran-4-yl)benzyl)-1H-pyrazolo[3,4-d]pyrimidin-6-amine]
  IC50: < 100 nM

## CN1CCN(c2cccc(Cn3ncc4cnc(Nc5cnn(C)c5)nc43)c2)CC1 [Example 10, N-(1-Methyl-1H-pyrazol-4-yl)-1-(3-(4-methylpiperazin-1-yl)benzyl)-1H-pyrazolo[3,4-d]pyrimidin-6-amine]
  IC50: < 100 nM

## Cc1c(Cn2ncc3cnc(Nc4cnn(C)c4)nc32)cccc1N1CCOCC1 [Example 11, N-(1-Methyl-1H-pyrazol-4-yl)-1-(2-methyl-3-morpholinobenzyl)-1H-pyrazolo[3,4-d]pyrimidin-6-amine]
  IC50: < 100 nM

## CNC(=O)Cn1cc(Nc2ncc3cnn(Cc4cccc(N5CCOCC5)c4)c3n2)cn1 [Example 12, N-Methyl-2-(4-((1-(3-morpholinobenzyl)-1H-pyrazolo[3,4-d]pyrimidin-6-yl)amino)-1H-pyrazol-1-yl)acetamide]
  IC50: < 100 nM

## CCOC(=O)C1CCCN(c2cccc(Cn3ncc4cnc(Nc5cnn(C)c5)nc43)c2)C1 (stereo not drawn) [Example 13, Ethyl 1-(3-((6-((1-methyl-1H-pyrazol-4-yl)amino)-1H-pyrazolo[3,4-d]pyrimidin-1-yl)methyl)phenyl)piperidine-3-carboxylate]
  IC50: 100 to 1000 nM

## NC(=O)CCn1cc(Nc2ncc3cnn(Cc4cccc(N5CCOCC5)c4)c3n2)cn1 [Example 14, 3-(4-((1-(3-Morpholinobenzyl)-1H-pyrazolo[3,4-d]pyrimidin-6-yl)amino)-1H-pyrazol-1-yl)propanamide]
  IC50: < 100 nM

## Cn1cc(Nc2ncc3cnn(Cc4cc(N5CCOCC5)ccc4F)c3n2)cn1 [Example 15, 1-(2-Fluoro-5-morpholinobenzyl)-N-(1-methyl-1H-pyrazol-4-yl)-1H-pyrazolo[3,4-d]pyrimidin-6-amine]
  IC50: 100 to 1000 nM

## CN(C)C(=O)CCn1cc(Nc2ncc3cnn(Cc4cccc(N5CCOCC5)c4)c3n2)cn1 [Example 16, N,N-Dimethyl-3-(4-((1-(3-morpholinobenzyl)-1H-pyrazolo[3,4-d]pyrimidin-6-yl)amino)-1H-pyrazol-1-yl)propanamide]
  IC50: < 100 nM

## Cn1cc(Nc2ncc3cnn(Cc4c(F)c(F)cc(N5CCOCC5)c4F)c3n2)cn1 [Example 17, N-(1-Methyl-1H-pyrazol-4-yl)-1-(2,3,6-trifluoro-5-morpholinobenzyl)-1H-pyrazolo[3,4-d]pyrimidin-6-amine]
  IC50: < 100 nM

## OCCCn1cc(Nc2ncc3cnn(Cc4cccc(N5CCOCC5)c4)c3n2)cn1 [Example 18, 3-(4-((1-(3-Morpholinobenzyl)-1H-pyrazolo[3,4-d]pyrimidin-6-yl)amino)-1H-pyrazol-1-yl)propan-1-ol]
  IC50: < 100 nM

## Cn1cc(Nc2ncc3cnn(Cc4cccc(N5CCC(F)(F)CC5)c4)c3n2)cn1 [Example 19, 1-(3-(4,4-Difluoropiperidin-1-yl)benzyl)-N-(1-methyl-1H-pyrazol-4-yl)-1H-pyrazolo[3,4-d]pyrimidin-6-amine]
  IC50: 100 to 1000 nM

## O=C(CCn1cc(Nc2ncc3cnn(Cc4cccc(N5CCOCC5)c4)c3n2)cn1)N1CCCCC1 [Example 20, 3-(4-((1-(3-Morpholinobenzyl)-1H-pyrazolo[3,4-d]pyrimidin-6-yl)amino)-1H-pyrazol-1-yl)-1-(piperidin-1-yl)propan-1-one]
  IC50: < 100 nM

## Cn1cc(Nc2ncc3cnn(Cc4cccc(N5CCOCC5)c4F)c3n2)cn1 [Example 21, 1-(2-Fluoro-3-morpholinobenzyl)-N-(1-methyl-1H-pyrazol-4-yl)-1H-pyrazolo[3,4-d]pyrimidin-6-amine]
  IC50: < 100 nM
